# Measurements: patent US10717730B1, “Dihydroisoquinoline compound” (SUZHOU ARK BIOPHARMACEUTICAL CO., LTD., priority 2017, dated 2020)
# Tests used:
# HBsAg = HBsAg assay (secreted HBsAg by CLIA in HepG2.2.15 cells); format: cell-based, hepatitis B virus (HBV); details: Hepatitis B virus, HepG2.2.15, 96 h
# Procedure, shortened: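 HepG2.2.15 cells were exposed to a five-fold compound dilution series (0.5% DMSO final) for four days. Secreted HBsAg in supernatant quantified by chemiluminescence immunoassay; IC50 extrapolated from dose-response curves.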
# [1] = Cytotoxicity CC50 (CellTiter-Glo); format: cell-based; details: human; HepG2.2.15 cells, four days
# Description: HepG2.2.15 cells were seeded into 96-well white plate at 5000 cells/well and treated with serially diluted compounds. The plates were incubated in incubator with 5% CO2 at 37° C. for four days. The plate was taken out of incubator and adapted to room temperature for 30 minutes, followed by adding 25 μl CellTiter-Glo (Promega) reagent into each well and votexed at room temperature before being measured for luminance using spectrometer (Tecan Infinite® F200). The CC50 of each compound was defined as the compound concentration at which the treated well's cell viability is 50% compared to that of the DMSO treated well.
smiles,measurement,setting,value
"CCOC(=O)c1cn2c(cc1=O)-c1cc(OC)c(-c3ccc(=O)n(C(C)C(=O)OCC)c3)cc1CC2C(C)(C)C (stereo not shown) [Example 74, Ethyl 6-(tert-butyl)-9-(1-(1-ethoxy-1-oxoprop-2-yl)-6-oxo-1,6-dihydro-pyridin-3-yl)-10-methoxy-2-oxo-6,7-dihydro-2H-pyrido[2,1-a]isoquinoline-3-carboxylate]",IC50,HBsAg,0.129 µM
same,CC50 at 4 days,[1],50 to 100 µM
"CCOC(=O)CCCn1cc(-c2cc3c(cc2OC)-c2cc(=O)c(C(=O)OCC)cn2C(C(C)(C)C)C3)ccc1=O (stereo not shown) [Example 75, Ethyl 6-(tert-butyl)-9-(1-(4-ethoxy-4-oxobutyl)-6-oxo-1,6-dihydropyridin-3-yl)-10-methoxy-2-oxo-6,7-dihydro-2H-pyrido[2,1-a]isoquinoline-3-carboxylate]",IC50,HBsAg,0.466 µM
same,CC50 at 4 days,[1],50 to 100 µM
